Experimental data taken from patent US20050239656A1, “Pyridine compounds or salts thereof and herbicides containing the same” (priority 2002, published 2005).

Experiments:
[1] = tested on: barnyardgrass; assay: Test Example 1: foliage treatment, upland pot test; format: in vivo, Echinochloa crus-galli L.; details: observed 18th to 23rd day, 0 = non-treated, 100 = complete kill
Description: (§1) Upland field soil was put into a 1/170,000 ha pot, and seed of various plants were sown. Then, when the plants reached predetermined leaf stages ((1) barnyardgrass: 1.3 to 2.8 leaf stages, (2) crabgrass: 1.0 to 2.8 leaf stages, (3) green foxtail: 1.3 to 2.6 leaf stages, (4) redroot pigweed: 0.1 to 1.2 leaf stages, (5) prickly sida: 0.1 to 1.2 leaf stages, (6) velvetleaf: 0.1 to 1.2 leaf stages, (7) tall morningglory: 0.1 to 1.5 leaf stages, (8) rice: 1.2 to 2.6 leaf stages, (9) wheat: 1.3 to 2.4 leaf stages, (10) corn, 2.1 to 3.2 leaf stages, (11) soybean: 0.1 to 0.4 leaf stage), a wettable powder or emulsifiable concentrate having the compound of the present invention formulated in accordance with a usual formulation method, was weighed so that the active ingredient would be a predetermined amount, and diluted with water in an amount of 500 L/ha. To the diluted solution, 0.1% (v/v) of agricultural spreader was added. The herbicide thus adjusted was applied by a small size sprayer for foliage treatment. On the 18th to 23rd days after the application of the herbicide, the growth of the respective plants was visually observed, and the herbicidal effects were evaluated by the growth controlling degrees (%) ranging from 0 (equivalent to the non-treated plot) to 100 (complete kill), whereby the results shown in Table 3, were obtained.

[2] = tested on: crabgrass; assay: Test Example 1: foliage treatment, upland pot test; format: in vivo, Digitaria sanguinalis L.; details: observed 18th to 23rd day, 0 = non-treated, 100 = complete kill
Description: as §1

[3] = tested on: green foxtail; assay: Test Example 1: foliage treatment, upland pot test; format: in vivo, Setaria viridis L.; details: observed 18th to 23rd day, 0 = non-treated, 100 = complete kill
Description: as §1

[4] = tested on: redroot pigweed; assay: Test Example 1: foliage treatment, upland pot test; format: in vivo, Amaranthus retroflexus L.; details: observed 18th to 23rd day, 0 = non-treated, 100 = complete kill
Description: as §1

[5] = tested on: prickly sida; assay: Test Example 1: foliage treatment, upland pot test; format: in vivo, Sida spinosa L.; details: observed 18th to 23rd day, 0 = non-treated, 100 = complete kill
Description: as §1

[6] = tested on: velvetleaf; assay: Test Example 1: foliage treatment, upland pot test; format: in vivo, Abutilon theophrasti MEDIC.; details: observed 18th to 23rd day, 0 = non-treated, 100 = complete kill
Description: as §1

[7] = tested on: rice; assay: Test Example 1: foliage treatment, upland pot test; format: in vivo, Oryza sativa L.; details: crop, observed 18th to 23rd day, 0 = non-treated, 100 = complete kill
Description: as §1

[8] = tested on: corn; assay: Test Example 1: foliage treatment, upland pot test; format: in vivo, Zea mays L.; details: crop, observed 18th to 23rd day, 0 = non-treated, 100 = complete kill
Description: as §1

[9] = tested on: soybean; assay: Test Example 1: foliage treatment, upland pot test; format: in vivo, Glycine max Merr.; details: crop, observed 18th to 23rd day, 0 = non-treated, 100 = complete kill
Description: as §1

[10] = tested on: barnyardgrass; assay: Test Example 2: soil surface treatment, upland pot test; format: in vivo, Echinochloa crus-galli L.
Method in brief: (§2)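 Upland soil in pots of 1/170,000 ha is sown; on day 1 after sowing the formulated compound (wettable powder or emulsifiable concentrate, predetermined a.i. amount, water volume 1,500 L/ha) is applied to the soil surface with a small sprayer. Percent control is judged by eye 20–28 days later.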

[11] = tested on: crabgrass; assay: as above; format: in vivo, Digitaria sanguinalis L.
Method in brief: as §2

[12] = tested on: green foxtail; assay: as above; format: in vivo, Setaria viridis L.
Method in brief: as §2

[13] = tested on: redroot pigweed; assay: as above; format: in vivo, Amaranthus retroflexus L.
Method in brief: as §2

[14] = tested on: prickly sida; assay: as above; format: in vivo, Sida spinosa L.
Method in brief: as §2

[15] = tested on: velvetleaf; assay: as above; format: in vivo, Abutilon theophrasti MEDIC.
Method in brief: as §2

[16] = tested on: rice; assay: as above; format: in vivo, Oryza sativa L.
Method in brief: as §2

[17] = tested on: corn; assay: as above; format: in vivo, Zea mays L.
Method in brief: as §2

[18] = tested on: soybean; assay: as above; format: in vivo, Glycine max Merr.
Method in brief: as §2

[19] = tested on: barnyardgrass; assay: Test Example 3: paddy pot test, application under submerged conditions; format: in vivo, Echinochloa crus-galli L.; details: active ingredient 250 g/ha; submerged application at 0.5 leaf stage; visually observed 14 days after application; 0 = non-treated, 100 = complete kill
Method in brief: (§3)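 Barnyardgrass and japanese bulrush sown in flooded paddy soil in greenhouse pots, japanese ribbon wapato tubers planted 1–2 days later; water depth kept at 3–4 cm. Diluted wettable powder or emulsifiable concentrate applied into water at 0.5-leaf or primary-leaf stage at set active-ingredient doses. Growth control scored visually at 14 days, 0 (untreated) to 100% (complete kill).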

[20] = tested on: japanese bulrush; assay: as above; format: in vivo, Scirpus juncoides; details: submerged application at 0.5 leaf stage, visually observed 14 days after application, 0 = non-treated, 100 = complete kill
Method in brief: as §3

[21] = tested on: japanese ribbon wapato; assay: as above; format: in vivo, Sagittaria pygniaea; details: submerged application at primary leaf stage, visually observed 14 days after application, 0 = non-treated, 100 = complete kill
Method in brief: as §3

[22] = tested on: rice (var. Nihonbare); assay: Test Example 3: paddy pot test, transplanted rice; format: in vivo, Oryza sativa L.; details: applied 4th day after transplantation, visually observed 21st day after application, 0 = non-treated, 100 = complete kill
Method in brief: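 Rice (var. Nihonbare) at 2 leaf stage transplanted 3 cm deep into puddled paddy soil under 3–4 cm flooding; on day 4 after transplanting, diluted wettable powder or emulsifiable concentrate applied by pipette under submerged conditions at a set active-ingredient dose. Growth scored visually 21 days after application, 0 (untreated) to 100 (complete kill) %.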

[23] = active ingredient 500 g/ha, observed day 21, 0 = non-treated, 100 = complete kill
[24] = active ingredient 250 g/ha, observed 20th to 28th day
[25] = active ingredient 500 g/ha, observed 20th to 28th day

Row | Compound | Growth controlling degree (%) Barnyardgrass ([1]; active ingredient 500 g/ha) [%] | Growth controlling degree (%) Crabgrass ([2]; active ingredient 500 g/ha) [%] | Growth controlling degree (%) Green foxtail ([3]; active ingredient 500 g/ha) [%] | Growth controlling degree (%) Redroot pigweed ([4]; active ingredient 500 g/ha) [%] | Growth controlling degree (%) Prickly sida ([5]; active ingredient 500 g/ha) [%] | Growth controlling degree (%) Velvetleaf ([6]; active ingredient 500 g/ha) [%] | Growth controlling degree (%) Rice ([7]; active ingredient 500 g/ha) [%] | Growth controlling degree (%) Corn ([8]; active ingredient 500 g/ha) [%] | Growth controlling degree (%) Soybean ([9]; active ingredient 500 g/ha) [%] | Growth controlling degree (%) Barnyardgrass [19] [%] | Growth controlling degree (%) Japanese bulrush ([20]; active ingredient 250 g/ha) [%] | Growth controlling degree (%) Rice ([22]; active ingredient 250 g/ha) [%] | Growth controlling degree (%) Barnyardgrass [10, 25] [%] | Growth controlling degree (%) Crabgrass [11, 25] [%] | Growth controlling degree (%) Green foxtail [12, 25] [%] | Growth controlling degree (%) Redroot pigweed [13, 25] [%] | Growth controlling degree (%) Prickly sida [14, 25] [%] | Growth controlling degree (%) Velvetleaf [15, 25] [%] | Growth controlling degree (%) Corn [17, 25] [%] | Growth controlling degree (%) Soyabean [18, 25] [%] | other results
1 | CC(C)C(c1cnccc1C(F)(F)F)N(C)C(=O)Cc1cccs1 (stereo not shown) [I-258] | 80 | 90 | 50 | 80 | 70 | 90 | 10 | 10 | 70 | 100 | 98 | 30 | – | – | – | – | – | – | – | – | Growth controlling degree (%) Barnyardgrass [10, 23]: 100%; Growth controlling degree (%) Crabgrass [11, 23]: 100%; Growth controlling degree (%) Green foxtail [12, 23]: 100%; Growth controlling degree (%) Redroot pigweed [13, 23]: 90%; Growth controlling degree (%) Prickly sida [14, 23]: 100%; Growth controlling degree (%) Velvetleaf [15, 23]: 60%; Growth controlling degree (%) Rice [16, 23]: 10%; Growth controlling degree (%) Corn [17, 23]: 0%; Growth controlling degree (%) Soyabean [18, 23]: 10%; Growth controlling degree (%) Japanese ribbon wapato ([21]; active ingredient 250 g/ha): 70%
2 | CC(C)C(c1cnccc1C(F)(F)F)N(C)C(=O)Cc1ccc(F)cc1 (stereo not shown) [I-21] | 80 | 95 | 70 | 90 | 90 | 95 | 20 | 30 | 70 | – | – | – | – | – | – | – | – | – | – | – | Growth controlling degree (%) Barnyardgrass [10, 24]: 60%; Growth controlling degree (%) Crabgrass [11, 24]: 98%; Growth controlling degree (%) Green foxtail [12, 24]: 90%; Growth controlling degree (%) Redroot pigweed [13, 24]: 90%; Growth controlling degree (%) Prickly sida [14, 24]: 80%; Growth controlling degree (%) Velvetleaf [15, 24]: 70%; Growth controlling degree (%) Rice [16, 24]: 40%; Growth controlling degree (%) Corn [17, 24]: 50%; Growth controlling degree (%) Soyabean [18, 24]: 20%; Growth controlling degree (%) Japanese bulrush ([20]; active ingredient 500 g/ha): 98%; Growth controlling degree (%) Japanese ribbon wapato ([21]; active ingredient 500 g/ha): 100%; Growth controlling degree (%) Rice ([22]; active ingredient 500 g/ha): 40%
3 | CC(C)C(c1cnccc1C(F)(F)F)N(C)C(=O)Cc1cccc(F)c1F (stereo not shown) [I-19] | – | – | – | – | – | – | – | – | – | – | – | – | 95 | 100 | 100 | 80 | 98 | 80 | 30 | 30 | Growth controlling degree (%) Barnyardgrass ([1]; active ingredient 1000 g/ha): 80%; Growth controlling degree (%) Crabgrass ([2]; active ingredient 1000 g/ha): 90%; Growth controlling degree (%) Green foxtail ([3]; active ingredient 1000 g/ha): 70%; Growth controlling degree (%) Redroot pigweed ([4]; active ingredient 1000 g/ha): 80%; Growth controlling degree (%) Prickly sida ([5]; active ingredient 1000 g/ha): 80%; Growth controlling degree (%) Velvetleaf ([6]; active ingredient 1000 g/ha): 80%; Growth controlling degree (%) Rice ([7]; active ingredient 1000 g/ha): 20%; Growth controlling degree (%) Corn ([8]; active ingredient 1000 g/ha): 50%; Growth controlling degree (%) Soybean ([9]; active ingredient 1000 g/ha): 90%; Growth controlling degree (%) Rice [16, 25]: 10%; Growth controlling degree (%) Japanese bulrush ([20]; active ingredient 500 g/ha): 95%; Growth controlling degree (%) Japanese ribbon wapato ([21]; active ingredient 500 g/ha): 95%; Growth controlling degree (%) Rice ([22]; active ingredient 500 g/ha): 35%
4 | CC(C)C(c1cnccc1C(F)(F)F)N(C)C(=O)Cc1ccc(Cl)c(Cl)c1 (stereo not shown) [I-28] | 10 | 80 | 60 | 80 | 70 | 90 | 0 | 0 | 60 | 100 | 70 | 0 | 70 | 80 | 70 | 70 | 30 | 50 | 0 | 0 | Growth controlling degree (%) Japanese ribbon wapato ([21]; active ingredient 250 g/ha): 10%
5 | CC(C)C(c1cnccc1C(F)(F)F)N(C)C(=O)Cc1ccc(F)cc1F (stereo not shown) [I-18] | – | – | – | – | – | – | – | – | – | – | – | – | 100 | 100 | 100 | 80 | 80 | 80 | 50 | 50 | Growth controlling degree (%) Barnyardgrass ([1]; active ingredient 1000 g/ha): 90%; Growth controlling degree (%) Crabgrass ([2]; active ingredient 1000 g/ha): 90%; Growth controlling degree (%) Green foxtail ([3]; active ingredient 1000 g/ha): 70%; Growth controlling degree (%) Redroot pigweed ([4]; active ingredient 1000 g/ha): 90%; Growth controlling degree (%) Prickly sida ([5]; active ingredient 1000 g/ha): 90%; Growth controlling degree (%) Velvetleaf ([6]; active ingredient 1000 g/ha): 90%; Growth controlling degree (%) Rice ([7]; active ingredient 1000 g/ha): 50%; Growth controlling degree (%) Corn ([8]; active ingredient 1000 g/ha): 80%; Growth controlling degree (%) Soybean ([9]; active ingredient 1000 g/ha): 70%; Growth controlling degree (%) Rice [16, 25]: 20%; Growth controlling degree (%) Japanese bulrush ([20]; active ingredient 500 g/ha): 90%; Growth controlling degree (%) Japanese ribbon wapato ([21]; active ingredient 500 g/ha): 90%; Growth controlling degree (%) Rice ([22]; active ingredient 500 g/ha): 10%
6 | CC(C)C(c1cnccc1C(F)(F)F)N(C)C(=O)Cc1ccc(C(F)(F)F)cc1 (stereo not shown) [I-31] | 95 | 85 | 80 | 80 | 80 | 95 | 40 | 70 | 90 | 100 | 95 | 20 | 100 | 90 | 100 | 80 | 100 | 50 | 30 | 50 | Growth controlling degree (%) Rice [16, 25]: 10%
